Patent US10226045B2, “Azoline compounds” (priority 2014, dated 2019)
Like-named read-outs stand apart in the source and are kept apart here.

Tests used:
Format in all cases: in vivo
[1] = tested on: Diamond Back Moth (Plutella xylostella); test: Diamond back moth, cabbage leaf dip test; conditions: foliar
Description: B.1 Diamond Back Moth (Plutella xylostella)
The active compound was dissolved at the desired concentration in a mixture of 1:1 (vol:vol) distilled water:aceteone. Surfactant (Kinetic HV) was added at a rate of 0.01% (vol/vol). The test solution was prepared at the day of use.
Leaves of cabbage were dipped in test solution and air-dried. Treated leaves were placed in petri dishes lined with moist filter paper and inoculated with ten 3rd instar larvae. Mortality was recorded 72 hours after treatment.

[2] = tested on: Green Peach Aphid (Myzus persicae); test: Green peach aphid, systemic test on artificial diet in microtiter plates; conditions: 72 h
Description: B.2 Green Peach Aphid (Myzus persicae)
For evaluating control of green peach aphid (Myzus persicae) through systemic means the test unit consisted of 96-well-microtiter plates containing liquid artificial diet under an artificial mem brane.
The compounds were formulated using a solution containing 75% v/v water and 25% v/v DMSO. Different concentrations of formulated compounds were pipetted into the aphid diet, using a custom built pipetter, at two replications.
After application, 5-8 adult aphids were placed on the artificial membrane inside the microtiter plate wells. The aphids were then allowed to suck on the treated aphid diet and incubated at about 23±1° C. and about 50±5% relative humidity for 3 days. Aphid mortality and fecundity was then visually assessed.

[3] = tested on: Vetch Aphid (Megoura viciae); test: Vetch aphid, broad bean leaf disk test; conditions: foliar, 120 h
Description: B.3 Vetch Aphid (Megoura viciae)
For evaluating control of vetch aphid (Megoura viciae) through contact or systemic means the test unit consisted of 24-well-microtiter plates containing broad bean leaf disks.
The compounds were formulated using a solution containing 75% v/v water and 25% v/v DMSO. Different concentrations of formulated compounds were sprayed onto the leaf disks at 2.5 μl, using a custom built micro atomizer, at two replications.
After application, the leaf disks were air-dried and 5-8 adult aphids placed on the leaf disks inside the microtiter plate wells. The aphids were then allowed to suck on the treated leaf disks and incubated at about 23±1° C. and about 50±5% relative humidity for 5 days. Aphid mortality and fecundity was then visually assessed.

[4] = tested on: Tobacco Budworm (Heliothis virescens); test: Tobacco budworm, insect diet microtiter plate test; conditions: 120 h
Description: B.4 Tobacco Budworm (Heliothis virescens)
For evaluating control of tobacco budworm (HeliothiS virescens) the test unit consisted of 96-well-microtiter plates containing an insect diet and 15-25 H. virescens eggs.
The compounds were formulated using a solution containing 75% v/v water and 25% v/v DMSO. Different concentrations of formulated compounds were sprayed onto the insect diet at 10 μl, using a custom built micro atomizer, at two replications.
(§1) After application, microtiter plates were incubated at about 28±1° C. and about 80±5% relative humidity for 5 days. Egg and larval mortality was then visually assessed.

[5] = tested on: Boll Weevil (Anthonomus grandis); test: Boll weevil, insect diet microtiter plate test; conditions: 120 h
Description: B.5 Boll Weevil (Anthonomus grandis)
For evaluating control of boll weevil (Anthonomus grandis) the test unit consisted of 96-well-microtiter plates containing an insect diet and 5-10 A. grandis eggs.
(§2) The compounds were formulated using a solution containing 75% v/v water and 25% v/v DMSO. Different concentrations of formulated compounds were sprayed onto the insect diet at 5 μl, using a custom built micro atomizer, at two replications.
After application, microtiter plates were incubated at about 25±1° C. and about 75±5% relative humidity for 5 days. Egg and larval mortality was then visually assessed.

[6] = tested on: Mediterranean Fruitfly (Ceratitis capitata); test: Mediterranean fruitfly, insect diet microtiter plate test; conditions: 120 h
Description: B.6 Mediterranean Fruitfly (Ceratitis capitata)
as §2, with “For evaluating control of Mediterranean fruitfly (CeratitiS capitata) the test unit consisted of microtiter plates containing an insect diet and 50-80 C. capitata eggs. The” for “The”
as §1

[7] = tested on: Orchid Thrips (dichromothrips corbetti); test: Orchid thrips, floral-immersion technique
Description: B.7 Orchid Thrips (dichromothrips corbetti)
Dichromothrips corbetti adults used for bioassay were obtained from a colony maintained continuously under laboratory conditions. For testing purposes, the test compound is diluted in a 1:1 mixture of acetone:water (vol:vol), plus Kinetic HV at a rate of 0.01% v/v.
Thrips potency of each compound was evaluated by using a floral-immersion technique. All petals of individual, intact orchid flowers were dipped into treatment solution and allowed to dry in Petri dishes. Treated petals were placed into individual re-sealable plastic along with about 20 adult thrips. All test arenas were held under continuous light and a temperature of about 28° C. for duration of the assay. After 3 days, the numbers of live thrips were counted on each petal. The percent mortality was recorded 72 hours after treatment.

[8] = tested on: Rice Green Leafhopper (Nephotettix virescens); test: Rice green leafhopper, sprayed rice seedlings; conditions: 72 h
Description: B.8 Rice Green Leafhopper (Nephotettix virescens)
Rice seedlings were cleaned and washed 24 hours before spraying. The active compounds were formulated in 1:1 acetone:water (vol:vol), and 0.01% vol/vol surfactant (Kinetic HV) was added. Potted rice seedlings were sprayed with 5-6 ml test solution, air dried, covered with Mylar cages cages and inoculated with 10 adults. Treated rice plants were kept at about 28-29° C. and relative humidity of about 50-60%. Percent mortality was recorded after 72 hours.

[9] = tested on: Red Spider Mite (Tetranychus kanzawai); test: Red spider mite, sprayed cowpea beans; conditions: 72 h
Description: B.9 Red Spider Mite (Tetranychus kanzawai)
The active compound was dissolved at the desired concentration in a mixture of 1:1 (vol:vol) distilled water:acetone. Add surfactant (Kinetic HV) was added at a rate of 0.01% (vol/vol). The test solution was prepared at the day of use.
Potted cowpea beans of 4-5 days of age were cleaned with tap water and sprayed with 1-2 ml of the test solution using air driven hand atomizer. The treated plants were allowed to air dry and afterwards inoculated with 30 or more mites by clipping a cassava leaf section from rearing population. Treated plants were placed inside a holding room at about 25-27° C. and about 50-60% relative humidity. Percent mortality was assessed 72 hours after treatment.

[10] = tested on: Southern Armyworm (Spodoptera eridania); test: Southern armyworm, sprayed lima bean plants; conditions: 96 h
Description: B.10 Southern Armyworm (Spodoptera eridania)
The active compounds were formulated in cyclohexanone as a 10,000 ppm solution supplied in tubes. The tubes were inserted into an automated electrostatic sprayer equipped with an atomizing nozzle and they served as stock solutions for which lower dilutions were made in 50% acetone:50% water (v/v). A nonionic surfactant (Kinetic®) was included in the solution at a volume of 0.01% (v/v).
Lima bean plants (variety Sieva) were grown 2 plants to a pot and selected for treatment at the 1st true leaf stage. Test solutions were sprayed onto the foliage by an automated electrostatic plant sprayer equipped with an atomizing spray nozzle. The plants were dried in the sprayer fume hood and then removed from the sprayer. Each pot was placed into perforated plastic bags with a zip closure. About 10 to 11 armyworm larvae were placed into the bag and the bags zipped closed. Test plants were maintained in a growth room at about 25° C. and about 20-40% relative humidity for 4 days, avoiding direct exposure to fluorescent light (24 hour photoperiod) to prevent trapping of heat inside the bags. Mortality and reduced feeding were assessed 4 days after treatment, compared to untreated control plants.

[11] = tested on: Green Soldier Stink Bug (Nezara viridula); test: Green soldier stink bug, sprayed soybean pods in Petri dishes; conditions: 120 h
Description: B.11 Green Soldier Stink Bug (Nezara viridula)
The active compound was dissolved at the desired concentration in a mixture of 1:1 (vol:vol) distilled water:acetone. Surfactant (Kinetic HV) was added at a rate of 0.01% (vol/vol). The test solution was prepared at the day of use.
Soybean pods were placed in glass Petri dishes lined with moist filter paper and inoculated with ten late 3rd instar N. viridula. Using a hand atomizer, approximately 2 ml solution is sprayed into each Petri dish. Assay arenas were kept at about 25° C. Percent mortality was recorded after 5 days.

[12] = tested on: Neotropical Brown Stink Bug (Euschistus heros); test: Neotropical brown stink bug, sprayed soybean pods in cups; conditions: 120 h
Description: B.12 Neotropical Brown Stink Bug (Euschistus heros)
(§3) The active compound was dissolved at the desired concentration in a mixture of 1:1 (vol:vol) distilled water: acetone. Surfactant (Kinetic HV) was added at a rate of 0.01% (vol/vol). The test solution was prepared at the day of use.
Soybean pods were placed in microwavable plastic cups and inoculated with ten adult stage E. heros. Using a hand atomizer, approximately 1 ml solution is sprayed into each cup, insects and food present. A water source was provided (cotton wick with water). Each treatment was replicated 2-fold. Assay arenas were kept at about 25° C. Percent mortality was recorded after 5 days.

[13] = tested on: Brown Marmorated Stink Bug (Halyomorpha halys); test: Brown marmorated stink bug, sprayed peanuts and soybean seeds in cups; conditions: 120 h
Description: B.13 Brown Marmorated Stink Bug (Halyomorpha halys)
as §3
Row peanuts and soybean seeds were placed into microwavable plastic cups and inoculated with five adult stage H. halys. Using a hand atomizer, approximately 1 ml solution is sprayed into each cup, insects and food present. A water source was provided (cotton wick with water). Each treatment is replicated 4-fold. Assay arenas are kept at about 25° C. Percent mortality was recorded after 5 days.

[14] = 2500 ppm, adult aphids on treated artificial diet, 3 days, in comparison with untreated controls, read-out: mortality
[15] = 2500 ppm, eggs on sprayed insect diet, egg and larval mortality after 5 days, in comparison with untreated controls, read-out: mortality

O=C(NCc1ccccn1)c1ccc(C2=NOC(c3cc(Cl)cc(Cl)c3)(C(F)(F)F)C2)c2c1CCC2 (centres unmarked) [Compound 1-27, 7-[5-(3,5-dichlorophenyl)-5-(trifluoromethyl)-4H-isoxazol-3-yl]-N-(2-pyridylmethyl)indane-4-carboxamide]
≥ 75%: mortality at 300 ppm ([1]; 72 h) | mortality at 2500 ppm [2] | mortality at 2500 ppm [3] | mortality at 2500 ppm [4] | mortality at 2500 ppm [5] | mortality at 2500 ppm [6] | mortality at 300 ppm ([7]; Thrips, 72 h) | mortality at 300 ppm [8] | mortality at 300 ppm [9] | mortality at 1 ppm [10] | mortality at 300 ppm [11] | mortality at 100 ppm [12] | mortality at 100 ppm [13]

O=C(NCC(F)(F)F)c1ccc(C2=NOC(c3cc(Cl)cc(Cl)c3)(C(F)(F)F)C2)c2c1CCCC2 (centres unmarked) [Compound 3-5, 8-[5-(3,5-dichlorophenyl)-5-(trifluoromethyl)-4H-isoxazol-3-yl]-N-(2,2,2-trifluoroethyl)tetralin-5-carboxamide]
≥ 75%: mortality at 300 ppm ([1]; 72 h) | mortality at 2500 ppm [2] | mortality at 2500 ppm [3] | mortality at 2500 ppm [4] | mortality at 2500 ppm [5] | mortality at 2500 ppm [6] | mortality at 300 ppm ([7]; Thrips, 72 h) | mortality at 300 ppm [8] | mortality at 300 ppm [9]

COC(=O)c1ccc(C2=NOC(c3cc(Cl)c(F)c(Cl)c3)(C(F)(F)F)C2)c2c1CCC2 (centres unmarked) [Compound 1-1, Methyl 7-[5-(3,5-dichloro-4-fluoro-phenyl)-5-(trifluoromethyl)-4H-isoxazol-3-yl]indane-4-carboxylate]
≥ 75%: mortality at 300 ppm ([1]; 72 h) | mortality at 2500 ppm [3] | mortality at 2500 ppm [4] | mortality at 2500 ppm [5] | mortality at 2500 ppm [6] | mortality at 300 ppm ([7]; Thrips, 72 h)

O=C(O)c1ccc(C2=NOC(c3cc(Cl)c(F)c(Cl)c3)(C(F)(F)F)C2)c2c1CCC2 (centres unmarked) [Compound 1-2, 7-[5-(3,5-Dichloro-4-fluoro-phenyl)-5-(trifluoromethyl)-4H-isoxazol-3-yl]indane-4-carboxylic acid]
≥ 75%: mortality at 300 ppm ([1]; 72 h) | mortality at 2500 ppm [4] | mortality at 2500 ppm [5]

O=C(O)c1ccc(C2=NCC(c3cc(Cl)c(F)c(Cl)c3)(C(F)(F)F)C2)c2c1CCC2 (centres unmarked) [Compound 2-1, 7-[3-(3,5-Dichloro-4-fluoro-phenyl)-3-(trifluoromethyl)-2,4-dihydropyrrol-5-yl]indane-4-carboxylic acid]
≥ 75%: mortality at 300 ppm ([1]; 300 ppm, 3rd instar larvae on dipped cabbage leaves, 72 hours after treatment, in comparison with untreated controls, read-out: mortality) | mortality at 2500 ppm [2, 14] | mortality at 2500 ppm [4, 15] | mortality at 2500 ppm [5, 15]

COC(=O)c1ccc(C2=NCC(c3cc(Cl)c(F)c(Cl)c3)(C(F)(F)F)C2)c2c1CCC2 (centres unmarked) [Compound 2-2, Methyl 7-[3-(3,5-dichloro-4-fluoro-phenyl)-3-(trifluoromethyl)-2,4-dihydropyrrol-5-yl]indane-4-carboxylate]
≥ 75%: mortality at 2500 ppm [2, 14] | mortality at 2500 ppm ([3]; 2500 ppm, adult aphids on sprayed broad bean leaf disks, 5 days, in comparison with untreated controls, read-out: mortality) | mortality at 2500 ppm [4, 15] | mortality at 2500 ppm [5, 15] | mortality at 300 ppm ([7]; 300 ppm, adult thrips on dipped orchid petals, 72 hours after treatment, in comparison with untreated controls, read-out: mortality)

O=C(NCC1CC1)c1ccc(C2=NOC(c3cc(Cl)c(F)c(Cl)c3)(C(F)(F)F)C2)c2c1CCC2 (centres unmarked) [Compound 1-3, N-(Cyclopropylmethyl)-7-[5-(3,5-dichloro-4-fluoro-phenyl)-5-(trifluoromethyl)-4H-isoxazol-3-yl]indane-4-carboxamide]
≥ 75%: mortality at 300 ppm ([1]; 72 h) | mortality at 2500 ppm [2] | mortality at 2500 ppm [3] | mortality at 2500 ppm [4] | mortality at 2500 ppm [5] | mortality at 2500 ppm [6] | mortality at 300 ppm ([7]; Thrips, 72 h) | mortality at 300 ppm [8] | mortality at 300 ppm [9] | mortality at 300 ppm [11] | mortality at 100 ppm [12] | mortality at 100 ppm [13]

O=C(O)c1ccc(C2=NOC(c3cc(Cl)cc(Cl)c3)(C(F)(F)F)C2)c2c1CCCC2 (centres unmarked) [Compound 3-2, 8-[5-(3,5-dichlorophenyl)-5-(trifluoromethyl)-4H-isoxazol-3-yl]tetralin-5-carboxylic acid]
≥ 75%: mortality at 2500 ppm [5]
